Results taken from patent US11370769B2, “TRPC5 inhibitors and methods of using same” (BOARD OF REGENTS OF THE UNIVERSITY OF NEBRASKA, priority 2017, dated 2022).

How the values were obtained:
[1] = biological target: T1, TRPC5 channel (Rattus norvegicus, UniProt Q8VD38); experiment: Glomerular inside-out single-channel recordings, riluzole-activated TRPC5 channel activity; format: cell-based; conditions: Rilu 3 μM
T1 construct: Acutely isolated glomeruli were prepared as described above; from tissue; host or cells: acutely isolated glomeruli (podocytes) of AT1R Tg and WT rats
T1 sequence (Q8VD38 1-974): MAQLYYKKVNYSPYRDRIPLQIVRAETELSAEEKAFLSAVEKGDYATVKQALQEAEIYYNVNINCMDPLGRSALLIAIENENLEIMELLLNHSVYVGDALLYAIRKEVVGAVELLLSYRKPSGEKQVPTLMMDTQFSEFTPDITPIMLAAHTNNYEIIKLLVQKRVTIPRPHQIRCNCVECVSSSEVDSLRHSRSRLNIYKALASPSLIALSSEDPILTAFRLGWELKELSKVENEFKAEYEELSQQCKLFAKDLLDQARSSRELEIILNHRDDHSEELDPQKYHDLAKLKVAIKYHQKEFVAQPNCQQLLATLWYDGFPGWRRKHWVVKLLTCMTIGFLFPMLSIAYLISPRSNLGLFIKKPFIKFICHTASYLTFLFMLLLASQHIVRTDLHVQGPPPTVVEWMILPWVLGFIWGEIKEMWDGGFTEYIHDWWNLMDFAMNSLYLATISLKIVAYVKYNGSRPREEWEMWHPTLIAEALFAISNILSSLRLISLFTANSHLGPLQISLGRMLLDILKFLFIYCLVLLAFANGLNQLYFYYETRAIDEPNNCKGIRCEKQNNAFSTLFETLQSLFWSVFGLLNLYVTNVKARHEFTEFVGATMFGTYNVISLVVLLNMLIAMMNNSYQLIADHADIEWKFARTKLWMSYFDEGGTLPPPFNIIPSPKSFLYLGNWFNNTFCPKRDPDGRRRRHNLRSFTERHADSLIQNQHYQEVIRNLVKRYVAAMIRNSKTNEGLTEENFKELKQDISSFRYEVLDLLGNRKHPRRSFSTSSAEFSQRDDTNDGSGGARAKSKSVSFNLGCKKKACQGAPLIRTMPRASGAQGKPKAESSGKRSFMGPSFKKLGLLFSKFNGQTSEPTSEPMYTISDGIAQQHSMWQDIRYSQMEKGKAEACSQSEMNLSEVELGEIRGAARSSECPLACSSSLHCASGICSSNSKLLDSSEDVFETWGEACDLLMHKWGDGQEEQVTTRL
Method: Acute glomeruli isolation and Ca^2+-imaging: WT and AT1R Tg littermates were killed and kidneys were quickly dissected and washed with ice-cold PBS. After isolation using the sieving technique as previously described (11), glomeruli were incubated with the Ca^2+ indicator Fura2-AM (1 μM; Invitrogen) at 37° C. for 15 min. The extracellular solution for Ca^2+-imaging contained (in mM) 140 NaCl, 5 KCl, 10 HEPES, 2 MgCl2, 2 CaCl2, 10 glucose, with pH7.4 adjusted with NaOH. Glomerular Ca^2+-imaging was performed using an inverted microscope (Olympus IX70) with a high-speed CCD camera (Hamamatsu Photonics). Images were taken and analyzed using the Metafluor software (Molecular Devices). It should be noted that Fura-2 is most often taken up by podocytes at the periphery of the isolated glomerulus, but the specificity of recordings in podocytes is best confirmed by patch clamp electrophysiology, as described below.
Glomerular single-channel recordings: Acutely isolated glomeruli were prepared as described above. Single-channel recordings were carried out using an Axopatch 200B and Digidata 1550A (Molecular Devices). Bath and pipette solutions for glomerular single-channel recording contained (in mM) 135 CH3SO3Na, 5 CsCl, 2 CaCl2, 1 MgCl2, 10 HEPES, and 10 glucose with pH7.4 adjusted with NaOH. Once in the inside-out configuration, the bath solution was replaced by intracellular solution, containing (in mM) 135 CH3SO3Cs, 10 CsCl, 3 MgATP, 0.2 EGTA, 0.13 CaCl2, and 10 HEPES with pH 7.4 adjusted with CsOH. Patch pipettes, with resistance of 4-8 MΩ, were prepared using a two step-protocol (P-97, Sutter Instrument). Pipettes were fire-polished before use. For inside-out configuration, a giga-seal (>10 GΩ) was established prior to membrane rupture. Data was acquired at 10 kHz sampling frequency, and filtered with low-pass filtering at 1 kHz. Holding membrane potential was at −60 mV. Single-channel analysis was carried out using Clampfit 10.4 software (Molecular Devices).

[2] = tested on: caAT1R podocytes; experiment: Cell viability assay in podocytes expressing caAT1R; format: cell-based, mouse; conditions: 30 μM ML204, 30 μM AC1903 or 50 μM NSC23677 for 36 hours
Method: Podocyte culture and viral transduction: Immortalized mouse podocytes were cultured as previously described (10, 11). Podocyte viral transduction was performed using lentivirus as previously described (10, 11). Briefly, lentivirus production was carried out in HEK293T cells at 60% confluence, and viral particles were collected two days after transfection and purified by centrifugation at 1,000 rcf for 5 min. Purified lentivirus was frozen at −80° C. until further use. Podocytes were transduced with lentivirus after 7 days of differentiation, and assays were performed 5 days after viral transduction.
For experiments in FIG. 4B/C, pCDNA3.1 AT1AR-Δ324 (rat AT1R NM_030985.4) containing HA tag (Plasmid #45635, Addgene) underwent site directed mutagenesis (Agilent) to generate the N111S substitution. For FIG. 4B, differentiated podocytes were transduced with the AT1A-N111S/Δ324 construct in six-well plates. Six days after viral transduction, cells were treated with either vehicle, 30 μM ML204, 30 μM AC1903 or 50 μM NSC23677 for 36 hours. Intracellular production of ROS was measured using a cell-permeable fluorescent dye, 5-(and-6)-chloromethyl-2′,7′-dichlorodihydrofluorescein diacetate, acetyl ester (CM-H2DCFDA, Molecular Probes). Cells were incubated with 5 μM CM-H2DCFDA at 37° C. for 45 min in Hanks' balanced salt solution (HBSS). Cells were then collected, resuspended in HBSS, stained with propidium iodide and the fluorescence intensity was assessed by flow cytometry using MACSQuant Analyzer (Miltenyi Biotec, Bergisch Gladbach, Germany). Living cells, which were PI negative, were selected by FACS gating and the fluorescence of CM-H2DCFDA was recorded on the FL-1 channel (525 nm). For FIG. 4C, differentiated podocytes were transduced with the AT1A-N111S/Δ324 construct in 96 well plates. Six days after transduction, the cells were treated with either vehicle, 30 μM ML204, 30 μM AC1903 or 50 μM NSC23677 for 36 hours. […]

Row | SMILES | block of TRPC5 channel activity, inside-out recordings in intact glomeruli ([1]; AT1R Tg rats, Advanced, AC1903 1 μM) | podocyte cell death on caAT1R expression [2] | inhibition of riluzole-activated channel activity, inside-out recordings of podocytes ([1]; AT1R Tg rat glomeruli at disease onset (Onset), ML204 1 μM) | inhibition of riluzole-activated conductance, inside-out recordings of podocytes ([1]; AT1R Tg rat glomeruli, established disease (Advanced), ML204 1 μM)
1 | c1ccc(Cn2c(NCc3ccco3)nc3ccccc32)cc1 [AC1903] | blocks TRPC5 channel activity | protected from cell death | – | –
2 | Cc1cc(N2CCCCC2)nc2ccccc12 [ML204, reference compound] | – | protected from cell death | significant ML204 inhibition of channel activity | inhibition of a much greater riluzole-activated conductance
